Assay [1] concerns HFD-fed mice. The assay is described as follows: CCl4 or STZ treatment of HFD-fed mice: hepatic mRNA by RT-qPCR. It counts as in vivo, mouse. The settings on record: compared to untreated HFD-fed mice. (Quantitative PCR measures a nucleic acid by following its amplification.)
For assay [2], the system named is mouse SCD1 promoter. Briefly: SCD1 promoter luciferase reporter assay and RT-qPCR in HEK293 cells. Conditions: DHEA 100 μM for 24 h. It counts as cell-based. As for the experimental part: In vitro luciferase reporter assay was performed to further validate the expression of SCD1 is transcriptional regulated by GPR110. Plasmid harbouring luciferase gene driven by the mouse SCD1 promoter (−2000 to +100) was constructed to transfect into HEK293 cells. Typically, HEK293 cells were cultured in DMEM supplemented with 10% FBS, 100 U/ml penicillin and 100 μg/ml streptomycin at 37° C. and 5% CO2, and then seeded in 6-well plates followed by transfection with pGL3-SCD1 promoter and adenoviral vector expressing either GPR110 (ADV-GPR110) or GFP (ADV-GFP) by using the transfection reagent (#E4981, Promega, WI, USA). There was no change of luciferase activity of pGL3- SCD1 promoter-luciferase transfected HEK293 cells under the treatment of GPR110 ligand DHEA, unless the HEK293 cells were pre-infected with adenovirus overexpressing GPR110 (ADV-GPR110; FIG. 9C). The overexpression of GPR110 in ADV-GPR110 infected cells and inductions of SCD1 mRNA expression by treatment of DHEA were also validated by RT-qPCR (FIG. 9D). The changes in hepatocyte lipid profiles by the expression level of GPR110 and SCD1 were also checked. In agreement with the in vivo data, the overexpression of GPR110 increased the intracellular CHO (FIG. 9E), TG (FIG. 9F) and FFA (FIG. 9G). […] In summary, the transcription level of SCD1 is regulated by GPR110. […]
In general terms: A reporter such as luciferase makes a cellular process visible.

Assay [3] has as its system SCD1. Briefly: SCD1 inhibitor MK8245 in HFD-fed rAAV-GPR110 mice: GPR110 expression, body weight, glucose homeostasis. In kind it is in vivo, mouse. The protocol: FIG. 10A schematically depicts a scheme of different treatments to a mouse model according to certain embodiments, where eight-week-old male C57BL/6J mice were infected with either 3×10^11 copies of rAAV encoding GPR110 (rAAV-GPR110) via i.v. or control (rAAV-GFP) via i.v. after 8-week HFD feeding, and then 2 weeks after infection treated with SCD1 inhibitor, MK8245, at 10 mg/kg/week via oral administration (p.o.) or inhibitor vehicle (inhibitor-Veh.) via p.o.;
To evaluate the impacts of high hepatic GPR110 level on liver metabolism, GPR110 was overexpressed in the hepatocytes of HFD-fed mice by liver-directed rAAV/thyroxine binding globulin (TBG)-mediated gene expression system (FIGS. 2A and 3A). In general, 8-week-old C57BL/6J male mice were housed in pathogen-free conditions at controlled temperature with a 12-hour light-dark cycle and access to food and water ad libitum. The 8-week-old male mice were divided into two groups and fed with high-fat diet (HFD, 20% protein, 45% fat, 35% carbohydrates, Research Diets Inc., New Brunswick, NJ, USA), or standard chow diet (STC, 18.3% protein, 10.2% fat, 71.5% carbohydrates, Research Diet Inc., New Brunswick, NJ, USA) in some other examples, for 8 weeks. The recombinant adeno-associated virus vector rAAV2/8 transduction was conducted as described previously (Lee et al, 2016; Cheng et al, 2022). Briefly, mice were tail vein injected with 3×10^11 rAAV2/8 vector harboring either green fluorescent protein (GFP) or GPR110. In other examples, for antisense oligonucleotide (ASO) delivery, validated ASOs against mouse GPR110 were provided by Ionis Pharmaceuticals and injected subcutaneously once a week at 5 mg/kg body weight to the mice. In some other examples, for SCD1 inhibitor delivery, MK-8245 (MedChemExpress, NJ, USA) was gavage at 10 mg/kg once a week. All measurements were carried out in a randomized order. Typically, glucose profile measurement was performed in terms of the blood glucose and insulin level by collecting the blood samples from the tip of the tail of the mouse models using a glucometer. For the glucose tolerance test (GTT), insulin tolerance test (ITT) and pyruvate tolerance test (PTT), mice were fasted overnight prior to intraperitoneal injection of glucose (1 g/kg body weight (BW)) (Sigma, St. Louis, MO), 0.75 U/kg BW insulin (Novolin R, Novo Nordisk, Bagsvaerd, Denmark) or 1 g/kg BW pyruvate (Sigma, St. Louis, MO). Blood glucose levels were measured from the tip of tail vein at 15, 30, 60, 90 and 120 minutes after injection.

In assay [4] the test system is SCD1. Briefly: SCD1 inhibitor MK8245 in HFD-fed rAAV-GPR110 mice: circulating lipids, liver enzymes, hepatic steatosis.
Protocol: In general, 8-week-old C57BL/6J male mice were housed in pathogen-free conditions at controlled temperature with a 12-hour light-dark cycle and access to food and water ad libitum. […] Briefly, mice were tail vein injected with 3×10^11 rAAV2/8 vector harboring either green fluorescent protein (GFP) or GPR110. […] All measurements were carried out in a randomized order.
Typically, for plasma and hepatic lipid level, serum levels of triglyceride (TG) and total cholesterol (CHO) were measured using commercial kit (Biosino, biotechnology and science INC, China) according to the manufacturer's instructions. Hepatic lipids were extracted using Folch methodology and liver extract was dissolved in ethanol for TG and CHO measurements. Both serum and hepatic levels of free fatty acid (FFA) were measured using commercial kit (Solarbio, China).
Typically, for liver function assay, the alanine aminotransferase (ALT) and aspartate aminotransferase (AST) levels were measured in serum using commercial kits (Stanbio, USA).
Where [5] appears, read: HFD-fed rAAV-GPR110 mice, vs untreated littermates.
Setting [6] is: rAAV-GPR110 mice, chronic treatment for 11 weeks, 10 mg/kg/week p.o.
The mark [7] stands for this setting: HFD-fed rAAV-GPR110 mice, 10 mg/kg/week p.o.
[8] abbreviates: compared to the rAAV-GPR110 littermates.

The text below walks through data of US20240060072A1, “METHOD AND COMPOSITION FOR TREATING NON-ALCOHOLIC FATTY LIVER DISEASE, ASSOCIATED CONDITIONS AND SYMPTOMS” (THE HONG KONG POLYTECHNIC UNIVERSITY, priority 2022, published 2024).

For `ClC(Cl)(Cl)Cl` [CCl4], in assay [1], the “SCD1 mRNA expression level” value is reported as “significantly higher” and the “expression of hepatic GPR110 mRNA” value was “significantly increased”.

Turning to `CC/C=C\C/C=C\C/C=C\C/C=C\C/C=C\C/C=C\CCC(=O)NCCO` [DHEA], the “SCD1 mRNA expression” value in assay [2] (ADV-GPR110 infected HEK293 cells, RT-qPCR) was “inductions”. For the same compound, in assay [2] (HEK293 cells not pre-infected with ADV-GPR110), the “luciferase activity of pGL3-SCD1 promoter-luciferase” value was “no change”.

On to `O=C(O)Cn1nnc(-c2cc(N3CCC(Oc4cc(F)ccc4Br)CC3)no2)n1` [MK8245, 5-[3-[4-(2-bromo-5-fluorophenoxy)-1-piperidinyl]-5-isoxazolyl]-2H-tetrazole-2-acetic acid], for which the body weight entry in assay [3] (HFD-fed rAAV-GPR110 mice, 10 mg/kg/week p.o., vs untreated littermates) is reported as “lowered”. For the same compound, in assay [3] (setting [5]), the HOMR-IR result was “improved”, the fasting glucose level result was “improved”, the “insulin sensitivity by ITT” value is on record as “no change” and the “performance in GTT” value is “improved”. Besides, the “performance in PTT” value in assay [3] (setting [5]) was “improved”. Also, in assay [3] (setting [6]), the “expression of GPR110 mRNA” value was “did not affect” and the “expression of GPR110 protein” value is on record as “did not affect”. In assay [4] (HFD-fed rAAV-GPR110 mice), the HDL entry is “relatively higher”, the LDL level result is on record as “no differences detected”, the “circulating FFA level” value was “no change” and the severity of fibrosis entry is “partially reduced”. In assay [4] (setting [7]), the “circulating CHO level” value was “lowered” and the “circulating TG level” value is on record as “lowered”. Moreover, in assay [4] (setting [8]), the ALT level result was “alleviated” and the AST level result is listed as “alleviated”.

Consider `CN(N=O)C(=O)N[C@@H]1[C@@H](O)[C@H](O)[C@@H](CO)O[C@@H]1O` [STZ], for which, in assay [1], the “SCD1 mRNA expression level” value is “significantly higher” and the “expression of hepatic GPR110 mRNA” value is “significantly increased”.
